Results published in patent publication US8217063B2, “Lactam-substituted dicarboxylic acids and use thereof” (Bayer Intellectual Property GmbH, priority 2007, dated 2012).

Assays:
[1] = molecular target: T1, recombinant guanylate cyclase reporter cell line (Rattus norvegicus, UniProt P20595); experiment: sGC-activating activity in the CHO reporter cell in vitro; type: cell-based
T1 construct: expressed in transfected cells; host or cells: CHO
T1 sequence (P20595 1-619): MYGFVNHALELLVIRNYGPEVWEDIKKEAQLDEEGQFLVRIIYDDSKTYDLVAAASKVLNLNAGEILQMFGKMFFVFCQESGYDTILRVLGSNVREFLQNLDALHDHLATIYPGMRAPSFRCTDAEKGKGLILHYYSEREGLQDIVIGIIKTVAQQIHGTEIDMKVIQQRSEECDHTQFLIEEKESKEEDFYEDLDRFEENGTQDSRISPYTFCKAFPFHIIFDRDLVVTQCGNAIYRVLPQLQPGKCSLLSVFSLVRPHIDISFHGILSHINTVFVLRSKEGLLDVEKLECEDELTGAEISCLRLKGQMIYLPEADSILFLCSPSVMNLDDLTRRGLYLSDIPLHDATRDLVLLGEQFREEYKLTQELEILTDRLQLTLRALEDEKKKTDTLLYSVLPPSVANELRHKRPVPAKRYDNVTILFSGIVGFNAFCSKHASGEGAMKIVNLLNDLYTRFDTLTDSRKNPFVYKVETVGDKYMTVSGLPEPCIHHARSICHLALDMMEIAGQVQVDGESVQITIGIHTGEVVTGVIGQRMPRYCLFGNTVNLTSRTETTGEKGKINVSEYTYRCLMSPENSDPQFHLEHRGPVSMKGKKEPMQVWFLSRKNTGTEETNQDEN
T1 sequence (P19686 1-690 partner): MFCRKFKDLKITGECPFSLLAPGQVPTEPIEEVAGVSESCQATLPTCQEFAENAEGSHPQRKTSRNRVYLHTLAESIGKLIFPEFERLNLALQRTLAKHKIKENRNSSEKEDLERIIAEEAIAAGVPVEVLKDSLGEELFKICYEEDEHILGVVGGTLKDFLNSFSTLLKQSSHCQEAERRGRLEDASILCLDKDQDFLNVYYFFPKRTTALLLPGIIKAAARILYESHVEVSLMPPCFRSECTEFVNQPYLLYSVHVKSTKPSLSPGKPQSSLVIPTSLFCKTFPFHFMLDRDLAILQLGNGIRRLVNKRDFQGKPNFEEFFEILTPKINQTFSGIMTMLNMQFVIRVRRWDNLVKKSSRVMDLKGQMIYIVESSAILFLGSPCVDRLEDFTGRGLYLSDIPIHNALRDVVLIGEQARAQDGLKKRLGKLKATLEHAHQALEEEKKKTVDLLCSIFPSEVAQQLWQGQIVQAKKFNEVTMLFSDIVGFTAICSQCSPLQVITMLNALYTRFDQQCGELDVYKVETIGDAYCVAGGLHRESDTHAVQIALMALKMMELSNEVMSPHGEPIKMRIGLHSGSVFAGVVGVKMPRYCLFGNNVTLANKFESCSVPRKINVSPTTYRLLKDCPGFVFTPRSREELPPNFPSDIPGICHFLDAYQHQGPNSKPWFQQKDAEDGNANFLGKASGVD
Description: B-3. Action at Recombinant Guanylate Cyclase Reporter Cell Lines
The cellular action of the compounds according to the invention is determined using a recombinant guanylate cyclase reporter cell line, as described in F. Wunder et al., Anal. Biochem. 339, 104-112 (2005).

[2] = molecular target: T2, Heme-containing sGC (Rattus norvegicus, UniProt P20595); experiment: Stimulation of recombinant soluble guanylate cyclase (sGC) in vitro, heme-containing enzyme; type: biochemical; conditions: 0.0 μM Example 3
T2 construct: made in house; host or cells: baculovirus/Sf9
T2 sequence (P20595 1-619): T1 sequence (P20595 1-619)
T2 sequence (P19686 1-690 partner): T1 sequence (P19686 1-690 partner)
Text: B-2. Stimulation of Recombinant Soluble Guanylate Cyclase (sGC) In Vitro:
Hoenicka, E. M. Becker, H. Apeler, T. Sirichoke, H. Schroeder, R. Gerzer and J.-P. Stasch, “Purified soluble guanylyl cyclase expressed in a baculovirus/Sf9 system: Stimulation by YC-1, nitric oxide, and carbon oxide”, J. Mol. Med. 77 (1999), 14-23. The heme-free guanylate cyclase is obtained by adding Tween 20 to the sample buffer (0.5% in the final concentration).
The activation of sGC by a test substance is reported as n-fold stimulation of the basal activity.

[3] = test system: saphenous artery; experiment: Vasorelaxant effect in vitro (phenylephrine-contracted artery rings); set-up: species or system Rabbits; conditions: Oryctolagus cuniculus; rabbit saphenous artery rings, contraction induced by phenylephrine
Description: B-1. Vasorelaxant Effect In Vitro:
Rabbits are anesthetized and sacrificed by intravenous injection of thiopental sodium (about 50 mg/kg) and exsanguinated. The saphenous artery is removed and divided into rings 3 mm wide. The rings are mounted singly on in each case a pair of triangular hooks open at the end and made of 0.3 mm-thick special wire (Remanium®). Each ring is placed under an initial tension in 5 ml organ baths with Krebs-Henseleit solution which is at 37° C., is gassed with carbogen and has the following composition: NaCl 119 mM; KCl 4.8 mM; CaCl2×2H2O 1 mM; MgSO4×7H2O 1.4 mM; KH2PO4 1.2 mM; NaHCO3 25 mM; glucose 10 mM; bovine serum albumin 0.001%. The force of contraction is detected with Statham UC2 cells, amplified and digitized via A/D converters (DAS-1802 HC, Keithley Instruments, Munich) and recorded in parallel on chart recorders. Contractions are induced by addition of phenylephrine.
After several (generally 4) control cycles, the substance to be investigated is added in each further run in increasing dosage, and the height of the contraction achieved under the influence of the test substance is compared with the height of the contraction reached in the last preceding run. The concentration necessary to reduce the contraction reached in the preceding control by 50% is calculated from this (IC50). The standard application volume is 5 μl. The proportion of DMSO in the bath solution corresponds to 0.1%.

MEC (minimum effective concentration) [1] | IC50 [3] | Structure (SMILES) | further results
3 nM |  | CN1CCCN(CCCCCOc2ccccc2/C=C/C(CCc2ccc(C(=O)O)cc2)Cc2ccc(C(=O)O)cc2)C1=O (racemic) [Example 10, 4-[(4E)-3-(4-Carboxybenzyl)-5-(2-{[5-(3-methyl-2-oxotetrahydropyrimidin-1(2H)-yl)pentyl]oxy}-phenyl)pent-4-en-1-yl]benzoic acid] | 
1 nM |  | CC1OCCN(CCCCCOc2ccccc2/C=C/C(CCc2ccc(C(=O)O)cc2)Cc2ccc(C(=O)O)cc2)C1=O (centres unmarked) [Example 9, 4-[(4E)-3-(4-Carboxybenzyl)-5-(2-[5-(2-methyl-3-oxomorpholin-4-yl)pentyl]oxy 1-phenyl)pent-4-en-1-yl]benzoic acid] | 
 |  | O=c1onc2cnc3ccccc3n12 [ODQ, 1H-1,2,4-oxadiazole-(4,3a)-quinoxalin-1-one, reference compound] | Stimulation (n-fold) of sGC with ODQ alone ([2]; 10 μM ODQ): 3.9 n-fold
 |  | CCN(CC)[N+]([O-])=NO [DEA/NO, 2-(N,N-diethylamino)diazenolate 2-oxide, reference compound] | Stimulation (n-fold) of sGC by DEA/NO alone ([2]; 0.1 μM DEA/NO): 18.5 n-fold
1 nM |  | O=C(O)c1ccc(CCC(/C=C/c2ccccc2OCCCCCN2CCCCC2=O)Cc2ccc(C(=O)O)cc2)cc1 (racemic) [Example 7, 4-[(4E)-3-(4-Carboxybenzyl)-5-(2-{[5-(2-oxopiperidin-1-yl)pentyl]oxy}phenyl)pent-4-en-1-yl]-benzoic acid] | 
100 nM |  | O=C(O)c1ccc(CCC(/C=C/c2ccccc2OCCN2CCOC2=O)Cc2ccc(C(=O)O)cc2)cc1 (racemic) [Example 12, 4-[(4E)-3-(4-Carboxybenzyl)-5-{2-[2-(2-oxo-1,3-oxazolidin-3-yl)ethoxy]phenyl}pent-4-en-1-yl]-benzoic acid] | 
3 nM | 390 nM | O=C(O)c1ccc(CCC(/C=C/c2cc(F)ccc2OCCCN2CCCC2=O)CCc2ccc(C(=O)O)cc2)cc1 [Example 1, 4-[(4E)-3-[2-(4-Carboxyphenyl)ethyl]-5-{5-fluoro-2-[3-(2-oxopyrrolidin-1-yl)propoxy]phenyl}-pent-4-en-1-yl]benzoic acid] | 
1 nM |  | O=C(O)c1ccc(CCC(/C=C/c2ccccc2OCCCCCN2CCOC2=O)Cc2ccc(C(=O)O)cc2)cc1 (racemic) [Example 8, 4-[(4E)-3-(4-Carboxybenzyl)-5-(2-{[5-(2-oxo-1,3-oxazolidin-3-yl)pentyl]oxy}phenyl)pent-4-en-1-yl]benzoic acid] | 
3 nM | 255 nM | O=C(O)c1ccc(CCC(/C=C/c2ccccc2OCCCN2CCCC2=O)CCc2ccc(C(=O)O)cc2)cc1 [Example 2, 4-[(4E)-3-[2-(4-Carboxyphenyl)ethyl]-5-{2-[3-(2-oxopyrrolidin-1-yl)propoxy]phenyl}pent-4-en-1-yl]benzoic acid] | 
3 nM | 135 nM | O=C(O)c1ccc(CCC(/C=C/c2cc(F)ccc2OCCCN2CCCC2=O)Cc2ccc(C(=O)O)cc2)cc1 (single isomer, unassigned) [Example 6, 4-[(4E)-3-(4-Carboxybenzyl)-5-{5-fluoro-2-[3-(2-oxopyrrolidin-1-yl)propoxy]phenyl}pent-4-en-1-yl]benzoic acid] | 
2 nM | 330 nM | O=C(O)c1ccc(CCC(/C=C/c2ccccc2OCCCN2CCOCC2=O)Cc2ccc(C(=O)O)cc2)cc1 (single isomer, unassigned) [Example 4, 4-[(4E)-3-(4-Carboxybenzyl)-5-{2-[3-(3-oxomorpholin-4-yl)propoxy]phenyl}pent-4-en-1-yl]-benzoic acid] | 
 | 58 nM | O=C(O)c1ccc(CCC(/C=C/c2ccccc2OCCCN2CCOC2=O)Cc2ccc(C(=O)O)cc2)cc1 (single isomer, unassigned) [Example 5, 4-[(4E)-3-(4-Carboxybenzyl)-5-{2-[3-(2-oxo-1,3-oxazolidin-3-yl)propoxy]phenyl}pent-4-en-1-yl]-benzoic acid] | 

Structure (SMILES) | MEC (minimum effective concentration) [1] | IC50 [3] | further results
O=C(O)c1ccc(CCC(/C=C/c2ccccc2OCCCCN2CCCC2=O)Cc2ccc(C(=O)O)cc2)cc1 (racemic) [Example 11, 4-[(4E)-3-(4-Carboxybenzyl)-5-{2-[4-(2-oxopyrrolidin-1-yl)butoxy]phenyl}pent-4-en-1-yl]benzoic acid] | <1 nM |  | 
